Assay results reported in patent EP0341661A2, “Peptide-drug compositions containing alpha-aminoboronic acid derivatives” (THE DU PONT MERCK PHARMACEUTICAL COMPANY, priority 1988, dated 1989).
Structures can show the parent of a compound that is named as a salt.

Legend:
[1] = system: aminopeptidases; assay: In situ nasal perfusion: disappearance of 35 µM LH-RH (fragment 3-10) in the nasal perfusate; type: in vivo, Sprague-Dawley rats; settings: 0.465 µM Boroleucine
Experimental: (§1) The method involved the use of Sprague-Dawley rats weighing approximately 300 grams. Each rat was anesthetized with sodium pentobarbitol (50 mg/kg). An incision was made in the neck and the trachea was canulated with PE 240 tubing. For the in situ studies, a second tube, which served to introduce the perfusing solution, was inserted through the esophagus to the posterior part of the nasal cavity. The nasopalatine was closed with an adhesive to prevent drainage of the perfusing solution from the nasal to the oral cavity. For the in vivo in situ studies, the esophagus was canulated using PE 240 tubing closed at one end. The closed end was pushed to the posterior end of the nasal passage and then tied in place. The nasopalatine was closed with an adhesive to prevent drainage of the perfusing solution from the nasal to the oral cavity. The rats were dosed in one nostril with 50 µl of peptide solution in two forms; the control solution had no inhibitor added, the test solution had inhibitor added at concentrations specified in the examples shown below. The dosing solution was 0.1 M phosphate buffer (pH 7.4). At certain time intervals (one rat/time interval), the drug was washed from the nose via the other nostril with 10 ml of 0.1 M phosphate buffer (pH 3.8) using a peristaltic pump. The nasal washing was then placed in a 10 ml volumetric flask and adjusted to 10 ml with the same buffer and analyzed for the peptide by HPLC.
(§2) The analysis of leucine enkephalin and its major metabolite involved taking aliquots of samples, diluting them with 200 µl of 0.1 M citric acid (pH 2.3) to quench hydrolysis and subjecting the samples to analysis (for in vivo in situ studies, the washings were injected as they were obtained). High Pressure Liquid Chromatography (HPLC) was run on a 4.6 x 250 mm C₈ column. The mobile phase consisted of 0.1 M NaH₂PO₄-H₃PO₄-acetonitrile (916 : 5 : 275) and was delivered at a flow rate of 1.7 ml/min. Detection was by UV at 210 nm. Retention times for leucine enkephalin and its major degradation product, Des-Tyr-leucine enkephalin were 7.3 and 4.8 min., respectively. Data were calculated as % of leucine enkephalin remaining in the nasal perfusate as a function of time, counting the concentration at zero time as 100%.
(§3) A 10 ml portion of the peptide solution was placed in a water-jacketed container, maintained at 37°C and circulated through the nasal cavity of rats using a peristaltic pump. The perfusing solution was passed through the nasal cavity, out the nostrils, through a funnel, and returned to the water-jacketed container. The perfusate was analyzed by the ANALYTICAL METHOD described above.
In this example, a 0.1 M phosphate buffer solution (pH 7.4) containing 35 µM LH-RH (fragment 3-10) in the absence of inhibitor and in the presence of the inhibitor, boroleucine at a concentration of 0.46 µM was administered to rats as described in Example 1. The perfusate was analyzed by HPLC as described in Example 1 with the exception of the mobile phase used. The mobile phase was comprised of 0.1 M NaH₂PO₄:H₃PO₄:CH₃CN(916:5:240) delivered at 1.7 ml/min and analyzed by UV at 210 nm.

[2] = system: aminopeptidases; assay: In situ nasal perfusion: disappearance of 100 µM Tyr-Phe-Met-Arg-Phe-NH₂ in the nasal perfusate; type: in vivo, Sprague-Dawley rats; settings: 100 µM peptide, 2 µM Boroleucine
Experimental: as §1, §2, §3
In this example, a 0.1 M phosphate buffer solution (pH 7.4) containing 100 µM Tyr-Phe-Met-Arg-Phe-NH₂ was administered nasally to rats as described in Example 1. The peptide was administered in the absence of inhibitor and in the presence of 2 µM boroleucine. The perfusate was analyzed by HPLC using the procedure described in Example 1 with the exception that the mobile phase was comprised of 0.1 M NaH₂PO₄:H₃PO₄:CH₃CN (200:1:60) delivered at 1.4 ml/min. Detection was by UV at 210 nm.

[3] = 120 min, listed as Boroleucine, trifluoroacetic acid salt
[4] = 120 min, trifluoroacetic acid salt

SMILES: CC(C)CC(N)B1OC(C)(C)C(C)(C)O1 (stereo not shown) [boroleucine, 3-methyl-1(4,4,5,5-tetramethyl-1,3,2-dioxaborolane-2-yl)-1-butamine, trifluoroacetic acid salt]
- LH-RH (fragment 3-10) remaining in the nasal perfusate ([1]; 0 min): 100.0%
- LH-RH (fragment 3-10) remaining in the nasal perfusate ([1]; 5 min): 96.7%
- LH-RH (fragment 3-10) remaining in the nasal perfusate ([1]; 10 min): 97.5%
- LH-RH (fragment 3-10) remaining in the nasal perfusate ([1]; 20 min): 95.5%
- LH-RH (fragment 3-10) remaining in the nasal perfusate ([1]; 30 min): 96.5%
- LH-RH (fragment 3-10) remaining in the nasal perfusate ([1]; 45 min): 95.8%
- LH-RH (fragment 3-10) remaining in the nasal perfusate ([1]; 60 min): 91.9%
- LH-RH (fragment 3-10) remaining in the nasal perfusate ([1]; 90 min): 92.9%
- LH-RH (fragment 3-10) remaining in the nasal perfusate [1, 3]: 86.4%
- LH-RH (fragment 3-10) remaining in the nasal perfusate [1, 4]: about 86%
- Tyr-Phe-Met-Arg-Phe-NH₂ remaining intact in the nasal perfusate ([2]; 0 min): 100.0%
- Tyr-Phe-Met-Arg-Phe-NH₂ remaining intact in the nasal perfusate ([2]; 5 min): 93.8%
- Tyr-Phe-Met-Arg-Phe-NH₂ remaining intact in the nasal perfusate ([2]; 20 min): 84.3%
- Tyr-Phe-Met-Arg-Phe-NH₂ remaining intact in the nasal perfusate ([2]; 30 min): 78.8%
- Tyr-Phe-Met-Arg-Phe-NH₂ remaining intact in the nasal perfusate ([2]; 45 min): 70.5%
- Tyr-Phe-Met-Arg-Phe-NH₂ remaining intact in the nasal perfusate ([2]; 60 min): 63.3%
- Tyr-Phe-Met-Arg-Phe-NH₂ remaining intact in the nasal perfusate ([2]; 90 min): 49.5%
- Tyr-Phe-Met-Arg-Phe-NH₂ remaining intact in the nasal perfusate [2, 3]: 32.9%
- Tyr-Phe-Met-Arg-Phe-NH₂ remaining intact in the nasal perfusate [2, 4]: 33%
